Source: patent US20250049787A1, “TREATMENT FOR ACUTE MYELOID LEUKEMIA OR LYMPHOMA” (UNIVERSITY HEALTH NETWORK, priority 2021, published 2025)
Structures can show the parent of a compound that is named as a salt.

Experiments:
[1] = test system: HL-60; assay: Growth inhibition, Alamar Blue; format: cell-based; conditions: Homo sapiens, 72 h; HL-60, AML M2; FLT3 wild-type, protein expressed; 3 days
Experimental: (§1) Cell lines were obtained from American Type Culture Collection (ATCC) and maintained according to the supplier's instructions, and from Dr. Mark Minden (Princess Margaret Cancer Centre, Toronto, Canada). Short tandem repeat (STR) profiling was used to verify authenticity of the cell lines. Peripheral blood from healthy human donors was obtained from the Hematology Malignancy Tissue Bank at the University Health Network. Peripheral blood mononuclear cells (PBMC) were prepared from the blood by density gradient centrifugation using Ficoll-Paque PLUS by manufacturer's instructions (GE Healthcare Life Sciences). […] Compound (I) tartrate was prepared as a 10 mM stock solution in 100% DMSO. The stock solution was diluted with RPMI-1640 (Invitrogen) containing 10% FBS (fetal bovine serum) such that the final concentrations ranged from 300 fM to 300 μM. Aliquots (20 μL) from each concentration were overlaid to 180 μL of pre-seeded cells to achieve final concentrations of 30 fM to 30 μM. After 3 days, cell growth in each well was assessed by Alamar Blue assay reagent (Invitrogen). Raw fluorescence (λEM=590 nm) values were adjusted by subtracting the average of the baseline readings from untreated cells assessed one day after cell seeding. Relative cell growth was calculated by comparing to DMSO-treated cells. The concentrations at which cell growth was inhibited by 50% (growth inhibition IC50) were calculated using GraphPad PRISM software (GraphPad Software Inc.).

[2] = test system: JURKAT; assay: Growth inhibition, Alamar Blue; format: cell-based; conditions: Homo sapiens, 72 h, T-ALL, 3 days
Experimental: as §1

[3] = test system: K562; assay: Growth inhibition, Alamar Blue; format: cell-based; conditions: Homo sapiens, 72 h; K562, CML; 3 days
Experimental: as §1

[4] = test system: MOLM-14; assay: Growth inhibition, Alamar Blue; format: cell-based; conditions: Homo sapiens, 72 h; MOLM-14, AML M5; FLT3 ITD + wild-type, protein expressed; 3 days
Experimental: as §1

[5] = test system: NALM-16; assay: Growth inhibition, Alamar Blue; format: cell-based; conditions: Homo sapiens, NALM16, 72 h; NALM-16, B-ALL; 3 days
Experimental: as §1

[6] = test system: OCI-AML5; assay: Growth inhibition, Alamar Blue; format: cell-based; conditions: Homo sapiens, OCI-AML-5, 72 h; OCI-AML5, AML M4; 3 days
Experimental: as §1

[7] = test system: OCI-LY18; assay: Growth inhibition, Alamar Blue; format: cell-based; conditions: Homo sapiens, 72 h; OCI-LY18, NHL, GCB-DLBCL; 3 days
Experimental: as §1

[8] = test system: REH; assay: Growth inhibition, Alamar Blue; format: cell-based; conditions: Homo sapiens, 72 h, B-ALL, 3 days
Experimental: as §1

[9] = test system: RS4; 11; assay: Growth inhibition, Alamar Blue; format: cell-based; conditions: Homo sapiens, 72 h, 11, B-ALL, 3 days
Experimental: as §1

[10] = test system: THP-1; assay: Growth inhibition, Alamar Blue; format: cell-based; conditions: Homo sapiens, 72 h; THP-1, AML M5; FLT3 wild-type, protein expressed; 3 days
Experimental: as §1

[11] = test system: U937; assay: Growth inhibition, Alamar Blue; format: cell-based; conditions: Homo sapiens, U-937, 72 h; U937, AML M5; 3 days
Experimental: as §1

[12] = test system: FLT3-ITD-expressing 32D cells (20 ng/ml mouse IL-3); assay: Growth inhibition, 32D transfectants with mouse IL-3; format: cell-based; conditions: 32D transfectant FLT3-ITD
Experimental: as §1, with “The concentrations at which cell growth was inhibited by 50% (growth inhibition IC50) were calculated using GraphPad PRISM software (GraphPad Software Inc.).” left out

[13] = test system: mature 160 kDa form of FLT3-ITD; assay: Immunoblot of FLT3 in MV-4-11 cells; format: cell-based, human; conditions: 4 hours, dose-dependent
Experimental: MV-4-11 cells (FLT3 LOH, FLT3-ITD positive cells) were treated with the indicated concentrations of Compound (I) tartrate for 4 hours at 37° C. and 5% CO2. Lysates were analyzed by immunoblot analysis with antibodies against FLT3 (Cell Signaling Technology, Inc., Cat. #3462), PARP (Cell Signaling Technology, Inc., Cat. #9542) and GAPDH (Millipore, Cat. #MAB374). Protein bands were visualized using a LI-COR Odyssey near infrared imager and representative data are shown. Compound (I) tartrate treatment increases the expression of the mature 160 kDa form of FLT3-ITD in MV-4-11 cells in a dose-dependent manner. Apoptotic cell death as measured by PARP cleavage was induced by Compound (I) tartrate treatment.

[14] = test system: FLT3-ITD maturation; assay: FLT3-ITD maturation in MOLM-14 cells; format: cell-based, human; conditions: MOLM-14 cells (co-express FLT3-ITD and wild-type FLT3); data not shown
[15] = test system: cell surface FLT3-ITD; assay: Flow cytometry, cell surface FLT3-ITD in MV-4-11 cells; format: cell-based, human; conditions: 100 nM, 4 hours
Experimental: MV-4-11 cells were treated with 100 nM Compound (I) tartrate or DMSO control for 4 hours at 37° C. and 5% CO2 and stained with PE-FLT3 (Beckman Coulter, Cat. IM2234U) or an isotype control antibody and analyzed on a BD LSRFortessa II flow cytometry analyzer. Data were analyzed using FlowJo software and representative data are shown. […] Compound (I) tartrate treatment increases the cell surface expression of FLT3-ITD in MV-4-11 cells.

SMILES: CN1CCN(c2ccc3nc(-c4c(N)c5ccsc5[nH]c4=O)[nH]c3c2)CC1 [Compound (I) tartrate, 4-amino-5-(6-(4-methylpiperazin-1-yl)-1H-benzo[d]imidazol-2-yl)thieno[2,3-b]pyridin-6(7H)-one]
- IC50 [1]: 1.2 µM
- IC50 [2]: 3.4 µM
- IC50 [3]: 6 µM
- IC50 [4]: 0.0047 µM
- IC50 [5]: 1.1 µM
- IC50 [6]: 0.27 µM
- IC50 [7]: 0.09 µM
- IC50 [8]: 1.4 µM
- IC50 [9]: 1.7 µM
- IC50 [10]: 1.3 µM
- IC50 [11]: 0.77 µM
- IC50 [12]: 1.44 µM
- expression of the mature 160 kDa form of FLT3-ITD [13]: increases
- FLT3-ITD maturation [14]: increase
- cell surface expression of FLT3-ITD [15]: increases
